From ChEMBL document CHEMBL3739293, “Synthesis of unusual isoxazoline containingand-dipeptides as potential glutamate receptor ligands” (Medchemcomm, 2015)

Key:
[1] = Displacement of [3H]KA from KA receptor in Sprague-Dawley rat brain synaptic membrane
[2] = target: Glutamate NMDA receptor; experiment: Displacement of [3H]CGP39653 from NMDA receptor in Sprague-Dawley rat brain synaptic membrane
[3] = Displacement of [3H]AMPA from AMPA receptor in Sprague-Dawley rat brain synaptic membrane

Question: What does the source list for `N[C@@H](CCC(=O)N1C[C@@H]2ON=C(O)[C@@H]2C1)C(=O)O`?
Answer: IC50 [1]: 37 µM; pIC50 [1]: 4.43; Ki [2]: 25 µM; pKi [2]: 4.63; IC50 [3]: 43 µM; pIC50 [3]: 4.37

Question: With `N[C@H](CCC(=O)N1C[C@@H]2C(C(=O)O)=NO[C@@H]2C1)C(=O)O` as the molecule, how does the IC50 [1] read?
Answer: Its IC50 is greater than 100 µM.

Question: What about the Ki [2] of the same molecule?
Answer: Its Ki is 58 µM.

Question: What about the pKi [2] of the same molecule?
Answer: Its pKi is 4.24.

Question: And the IC50 [3]?
Answer: Its IC50 is greater than 100 µM.

Question: With `N[C@@H](CCC(=O)N1C[C@@H]2ON=C(C(=O)O)[C@@H]2C1)C(=O)O` as the molecule, how does the IC50 [1] read?
Answer: Its IC50 is 66 µM.

Question: What about the pIC50 [1] of the same molecule?
Answer: Its pIC50 is 4.2.

Question: What about the Ki [2] of the same molecule?
Answer: The Ki was 24 µM.

Question: What about the pKi [2] of the same molecule?
Answer: Its pKi is 4.64.

Question: What about the IC50 [3] of the same molecule?
Answer: Its IC50 is 46 µM.

Question: And the pIC50 [3]?
Answer: The pIC50 was 4.34.

Question: For `N[C@H](CCC(=O)N1C[C@@H]2C(O)=NO[C@@H]2C1)C(=O)O`, which IC50 [1] is on record?
Answer: The IC50 was greater than 100 µM.

Question: What about the Ki [2] of the same molecule?
Answer: The Ki was greater than 100 µM.

Question: And the IC50 [3]?
Answer: Its IC50 is greater than 100 µM.

Question: What does the source list for `N[C@H](CCC(=O)N1C[C@@H]2ON=C(C(=O)O)[C@@H]2C1)C(=O)O` (single isomer, unassigned)?
Answer: IC50 [1]: 56 µM; pIC50 [1]: 4.25; Ki [2]: 28 µM; pKi [2]: 4.56; IC50 [3]: 67 µM; pIC50 [3]: 4.18

Question: Which IC50 [1] does the source give for `N[C@@H](CCC(=O)N1C[C@@H]2C(C(=O)O)=NO[C@@H]2C1)C(=O)O` (single isomer, unassigned) here?
Answer: The IC50 was 40 µM.

Question: What about the pIC50 [1] of the same molecule?
Answer: The pIC50 was 4.39.

Question: What about the Ki [2] of the same molecule?
Answer: Its Ki is 21 µM.

Question: What about the pKi [2] of the same molecule?
Answer: The pKi was 4.68.

Question: And the IC50 [3]?
Answer: The IC50 was 34 µM.

Question: And the pIC50 [3]?
Answer: Its pIC50 is 4.48.

Question: Which IC50 [1] does the source give for `N[C@H](CCC(=O)N1C[C@@H]2ON=C(O)[C@@H]2C1)C(=O)O` (single isomer, unassigned) here?
Answer: The IC50 was greater than 100 µM.

Question: What about the Ki [2] of the same molecule?
Answer: Its Ki is greater than 100 µM.

Question: What about the IC50 [3] of the same molecule?
Answer: The IC50 was greater than 100 µM.

Question: What does the source list for `N[C@@H](CCC(=O)N1C[C@@H]2C(O)=NO[C@@H]2C1)C(=O)O` (single isomer, unassigned)?
Answer: IC50 [1]: 59 µM; pIC50 [1]: 4.23; Ki [2]: 41 µM; pKi [2]: 4.41; IC50 [3]: 48 µM; pIC50 [3]: 4.36
